# Laboratory results reported in US11535599B2, “Benzisoxazole derivative” (Sumitomo Pharma Co., Ltd., priority 2020, dated 2022).
# Assays:
# [1] = tested on: levodopa-induced dyskinesia in 6-OHDA unilateral lesion model; assay: Effect for inhibiting levodopa-induced dyskinesia; format: in vivo, rat; details: Examples 30 or 100 mg/kg, rasagiline 0.2 or 0.6 mg/kg, daily for two weeks
# Description: A unilateral lesion model of nigrostriatal dopamine neuron induced with 6-hydroxydopamine (6-OHDA) is broadly used for evaluating the drug efficacy for treating Parkinson's disease, as mentioned in Test 2. In addition, it is known that dyskinesia is developed when the present model receives repetitive administration of levodopa, which is similar to the phenomenon that patients of Parkinson's disease who have received long-term administration of levodopa develop dyskinesia. With the present model, the effect of the present compound on the dyskinesia induced by repetitive administration of levodopa was evaluated. As shown in Test 2, a unilateral lesion model of nigrostriatal dopamine neuron was prepared. One day before starting the repetitive administration of levodopa, levodopa methyl ester hydrochloride (5.86 mg/kg) containing benserazide hydrochloride ([…]) (whose ratio was 4:1 in terms of free form) was intraperitoneally administered to the model, and the rotational behavior of the model was observed from 20 minutes to 140 minutes after the administration. The models were classified considering three factors of the total rotation number (20-140 minutes after the administration), the later term of the rotation (120-140 minutes after the administration), and the rotational duration, so that the dispersion of each group could be equal. Two days after the classification, the repetitive administration of levodopa methyl ester hydrochloride (6 mg/kg) and benserazide hydrochloride (12 mg/kg) once a day for two weeks was started. […] The evaluation of dyskinesia was done after one week and two weeks of the repetitive administration. […]
# [2] = tested on: harmaline-induced essential tremor model; assay: Anti-tremor effect in harmaline-induced essential tremor model; format: in vivo, mouse; details: Examples 1, 13: 25 or 50 mg/kg, Example 14: 3.125-25 mg/kg oral; β-propranolol 10 mg/kg i.p.
# Method: As an animal model of essential tremor, an animal administrated with harmaline is broadly used in its evaluation test. […] The effect of the present compounds for harmaline-acute-administration-induced tremor was studied. To male Crl: CD1 mice (6-7 weeks old) (CHARLES RIVER LABORATORIES JAPAN, INC.), harmaline (30 mg/kg) was intraperitoneally administered to induce tremor. The present compound (Example 1 (25 mg/kg or 50 mg/kg), Example 13 (25 mg/kg or 50 mg/kg), or Example 14 (3.125 mg/kg, 6.25 mg/kg, 12.5 mg/kg, or 25 mg/kg)) was orally administered to the mouse one hour before the administration of harmaline. And, saline or β-propranolol (10 mg/kg) which is a positive control compound was intraperitoneally administered to the mouse 20 minutes before the administration of harmaline. 35 minutes before the administration of harmaline, the mouse was put into a measurement cage (an acrylic cylinder set in a horizontal direction, φ 65 mm, length 145 mm), one cage to one mouse, said measurement cage was in a soundproof box of a startle response instrument (O'hara & Co., Ltd., Tokyo). The trembling that the mouse gave were recorded over time as tremor data. The animal was put into cage, and the data were recorded for 20 minutes just before (PRE) and just after (POST) the administration of harmaline. The time-series signal data were analyzed about frequency with an analysis software, VitalTracer and BIMUTAS II-A (both, Kissei Comtech Co., Ltd., Matsumoto-shi). At 12-15 Hz or 12-18 Hz as a frequency which increases with tremor, the spectrum amounts were extracted, and the tremor intensity T of each subject was calculated according to the following formula. T=POST/PRE
# human CA-II = human CA-II (Homo sapiens (Human), UniProt P00918); assay: Activity for inhibiting carbonic anhydrase (CA); format: biochemical; details: 4-nitrophenyl acetate substrate
# Method: CA is a zinc metalloenzyme family which catalyzes reversible hydration between carbon dioxide, and bicarbonate and proton.
# As a substance for decomposition by CA-II, 4-nitrophenyl acetate was used herein. 4-Nitrophenyl acetate is […] with CA-II to produce 4-nitrophenol. […] To the diluted solution were added […] (final concentration: 5 mmol/L) and the present compound of each concentration, and the mixture was incubated at 37° C. under shading for 30 minutes. […] The IC50 of the compound was obtained through the two-parameter logistic model with the inhibitory rate data in each concentration which was obtained from plural trials.
# [3] = tested on: rat sleep electroencephalogram; assay: Effect for sleeping stage/waking stage, rat sleep electroencephalogram; format: in vivo; details: 30 or 100 mg/kg oral, 6 hours
# Method: As non-motor symptoms in Parkinson's disease, sleep disorder such as insomnia (e.g. difficulty falling asleep, nocturnal awakening, etc.) is known. It is important to improve sleeping quality. The effect of the present compounds for sleep was evaluated by measuring rat sleep electroencephalogram.
# In the present test, male Crlj: WI rats (CHARLES RIVER LABORATORIES JAPAN, INC.) were used. Under anesthesia, a radiofrequency transmitter (HD-S02, Data Science International, Inc.) was set in the peritoneal cavity of the rat, and two electrodes for measuring electroencephalogram were stereotaxically placed in the skull (frontoparietal electrode: 2 mm ahead of bregma and 2 mm left from midline, parietal electrode: 5 mm behind bregma and 2 mm right from midline). An electrode for recording electromyogram was placed in the dorsal neck muscle. After more than one week as postoperative recuperation period, the rats were used in the sleep electroencephalogram measurement.
# The compound of Example 13 (30 mg/kg or 100 mg/kg) was orally administered to the rat just before light phase, and the electroencephalogram and electromyogram of the rat were recorded at 500 Hz for 6 hours in a breeding cage in a soundproof box. The recorded signals were classified to 3 stages, wake/REM sleep/non-REM sleep every 10 seconds with a sleep analysis program Sleepsign (version 3, Kissei Comtec Co., Ltd.), and aggregated. Specifically, when the myoelectric response was beyond the threshold defined for each individual animal, it was classified as wake, and otherwise it was classified as sleep. In the sleep, when the power value at delta wave (0.5-4 Hz) of EEG-frequency component was beyond the threshold defined for each individual beforehand, it was classified as non-REM sleep. When the power value at theta wave (4-8 Hz) was beyond 40% of the total power value at 0.5-80 Hz, it was classified as REM sleep.
Compound,dyskinesia induced by repetitive administration of levodopa (AIMS score) [1],harmaline-induced tremor intensity [2],IC50 (human CA-II) [µM],REM sleep latency [3],REM sleep time [3],non-REM sleep latency [3],non-REM sleep time [3],waking time [3]
"CC(c1noc2ccccc12)S(N)(=O)=O (centres unmarked) [Example 1, 1-(Benzo[d]isoxazol-3-yl)ethane-1-sulfonamide]",the onset of dyskinesia induced by repetitive administration of levodopa was inhibited,inhibited harmaline-induced tremor,26.5,–,–,–,–,–
"C[C@H](c1noc2ccccc12)S(N)(=O)=O [Example 13, (1R)-1-(1,2-benzoxazol-3-yl)ethane-1-sulfonamide]",the onset of dyskinesia induced by repetitive administration of levodopa was inhibited,inhibited harmaline-induced tremor,18.2,tended to elongate,significantly shortened,significantly shortened,increased,significantly shortened
